Measurements from patent publication US12495798B2, “Nicotinamide compound and herbicidal composition comprising compound” (KOREA RESEARCH INSTITUTE OF CHEMICAL TECHNOLOGY, priority 2019, dated 2025).

Tests used:
Format in all cases: in vivo
sorghum [1] = assay: Herbicidal activity test against upland field weeds (foliar treatment test); conditions: 50 g ai/ha, scale 0-100; for plant injury at 50 g/ha: Sorghum
Outline: (§1)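 Visual 0–100 control ratings relative to untreated plants, taken 14 (or 21) days after spraying foliage at 50 or 75 g a.i./ha. Spray solution: 50% acetone with 0.1% Tween-20; plants kept in greenhouse at 30±5 °C, 14 h light/10 h dark.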

barnyard grass [2] = assay: as above; conditions: 50 g ai/ha, scale 0-100; for pest or weed control at 50 g/ha: Echinochloa crus-galli
Outline: as §1

quack grass [3] = assay: as above; set-up: key to Foliar treatment herbicidal activity, quack grass: 0 (no control); 100 (complete control); conditions: 50 g ai/ha, scale 0-100
Outline: as §1

crabgrass [4] = assay: as above; set-up: key to Foliar treatment herbicidal activity, Crabgrass: 0 (no control); 100 (complete control); conditions: 50 g ai/ha, scale 0-100; for pest or weed control at 50 g/ha: Digitaria sanguinalis
Outline: as §1

fall panicum [5] = assay: as above; conditions: 50 g ai/ha, scale 0-100; for pest or weed control at 50 g/ha: Panicum dichotomiflorum
Outline: as §1

black nightshade [6] = assay: as above; set-up: key to Foliar treatment herbicidal activity, black nightshade: 0 (no control); 100 (complete control); conditions: 50 g ai/ha, scale 0-100
Outline: as §1

indian jointvetch [7] = assay: as above; set-up: key to Foliar treatment herbicidal activity, Indian jointvetch: 0 (no control); 100 (complete control); conditions: 50 g ai/ha, scale 0-100
Outline: as §1

velvetleaf [8] = assay: as above; set-up: key to Foliar treatment herbicidal activity, velvet leaf: 0 (no control); 100 (complete control); conditions: 50 g ai/ha; for Foliar treatment herbicidal activity, velvet leaf: scale 0-100; for pest or weed control at 50 g/ha: Abutilon theophrasti, scale 0-100, read-out: Foliar treatment herbicidal activity, velvet leaf
Outline: as §1

cocklebur [9] = assay: as above; conditions: 50 g ai/ha, scale 0-100; for pest or weed control at 50 g/ha: Xanthium strumarium
Outline: as §1

bindweed [10] = assay: as above; set-up: key to Foliar treatment herbicidal activity, Bindweed: 0 (no control); 100 (complete control); conditions: 50 g ai/ha, scale 0-100
Outline: as §1

sorghum [11] = assay: Herbicidal activity test against upland field weeds (soil treatment test); set-up: key to Soil treatment herbicidal activity, Sorghum: 0 (no control); 100 (complete control); conditions: 50 g ai/ha, scale 0 (no control) to 100 (complete control)
Protocol: (§2) Experimental Example 2: Herbicidal Activity Test Against Upland Field Weeds (Soil Treatment Test) Soil treatment was performed as follows: After filling a square plastic pot having a surface area of 350 cm^2 with sandy loam mixed with 1 g per pot (350 cm^2) of horticultural mixed fertilizer (N:P:K=11:10:11), seeds (10˜15 grains) or rootstocks (2 pieces) of 5 kinds of grassy weeds of sorghum, barnyard grass, quack grass, crabgrass, fall panicum, and 5 kinds of broadleaf weeds of black nightshade, indian jointvetch, velvetleaf, cocklebur, bindweed, which had been stored in a low temperature (6° C.), were sown. The day after sowing, test compound solutions were made by diluting with a preparation solution (including 50% acetone, 0.1% Tween-20) so that the final treatment amount of the test compounds was 50 or 75 g a.i./ha. The prepared test compound solution was used for treating soil surface by hand-spraying 14 mL per pot in a fume hood. After the treatment, it was managed under the same greenhouse conditions (average temperature 30±5° C., light/dark=14/10 hours), and after 14 days (after 21 days if necessary), the external symptoms and efficacy were investigated according to the scale of 0 (no control) to 100 (complete control). The results of Table 8 were obtained by evaluating weed control value to the untreated control by conducting visual assessment.

barnyard grass [12] = assay: as above; set-up: key to Soil treatment herbicidal activity, barnyard grass: 0 (no control); 100 (complete control); conditions: 50 g ai/ha, scale 0 (no control) to 100 (complete control)
Protocol: as §2

quack grass [13] = assay: as above; set-up: key to Soil treatment herbicidal activity, quack grass: 0 (no control); 100 (complete control); conditions: 50 g ai/ha, scale 0 (no control) to 100 (complete control)
Protocol: as §2

crabgrass [14] = assay: as above; set-up: key to Soil treatment herbicidal activity, Crabgrass: 0 (no control); 100 (complete control); conditions: 50 g ai/ha, scale 0 (no control) to 100 (complete control)
Protocol: as §2

fall panicum [15] = assay: as above; set-up: key to Soil treatment herbicidal activity, Fall panicum: 0 (no control); 100 (complete control); conditions: 50 g ai/ha, scale 0 (no control) to 100 (complete control)
Protocol: as §2

black nightshade [16] = assay: as above; set-up: key to Soil treatment herbicidal activity, black nightshade: 0 (no control); 100 (complete control); conditions: 50 g ai/ha, scale 0 (no control) to 100 (complete control); for pest or weed control at 50 g/ha: Solanum nigrum
Protocol: as §2

indian jointvetch [17] = assay: as above; set-up: key to Soil treatment herbicidal activity, Indian jointvetch: 0 (no control); 100 (complete control); conditions: 50 g ai/ha, scale 0 (no control) to 100 (complete control)
Protocol: as §2

velvetleaf [18] = assay: as above; set-up: key to Soil treatment herbicidal activity, velvet leaf: 0 (no control); 100 (complete control); conditions: 50 g ai/ha, scale 0 (no control) to 100 (complete control)
Protocol: as §2

bindweed [19] = assay: as above; set-up: key to Soil treatment herbicidal activity, Bindweed: 0 (no control); 100 (complete control); conditions: 50 g ai/ha, scale 0 (no control) to 100 (complete control)
Protocol: as §2

corn = assay: Phytotoxicity test for upland field crops (foliar treatment test); set-up: key: 0 (no harm); 9 (complete withered)
Outline: (§3)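 Post-emergence spray at 19–300 g a.i./ha (acetone/Tween-20 diluent, 100 ml/m²) onto greenhouse-grown plants. Damage rated 7 and 14 (optionally 21) days later on a 0–9 scale relative to untreated plants.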

wheat = assay: as above; set-up: key: 0 (no harm); 9 (complete withered)
Outline: as §3

cocklebur [20] = assay: Herbicidal activity test against upland field weeds (soil treatment test); set-up: key to Soil treatment herbicidal activity, Cocklebur: 0 (no control); 100 (complete control); conditions: 50 g ai/ha, scale 0 (no control) to 100 (complete control)
Protocol: as §2

[21] = 50 g ai/ha, Corn (7 days after treatment)
[22] = 50 g ai/ha, Corn (14 days after treatment)
[23] = 100 g ai/ha, Corn (7 days after treatment)
[24] = 100 g ai/ha, Corn (14 days after treatment)
[25] = 50 g ai/ha, Wheat (7 days after treatment)
[26] = 50 g ai/ha, Wheat (14 days after treatment)
[27] = 100 g ai/ha, Wheat (7 days after treatment)
[28] = 100 g ai/ha, Wheat (14 days after treatment)

In the case of `COC(=O)OC(C)N(C(=O)c1ccc(C(F)(F)F)nc1CSCc1nnn(C)n1)c1nnnn1C` (stereo not drawn) [Compound No. 4-3, methyl(1-(N-(1-methyl-1H-tetrazol-5-yl)-2-((((2-methyl-2H-tetrazol-5-yl)methyl)thio)methyl)-6-(trifluoromethyl)nicotinamido)ethyl)carbonate], the “Foliar treatment herbicidal activity, Sorghum” value (sorghum [1]) is reported as 80, the “Foliar treatment herbicidal activity, barnyard grass” value (barnyard grass [2]) is reported as 98 and the “Foliar treatment herbicidal activity, quack grass” value (quack grass [3]) is reported as 0. For the same compound, the “Foliar treatment herbicidal activity, Crabgrass” value (crabgrass [4]) was 98, the “Foliar treatment herbicidal activity, Fall panicum” value (fall panicum [5]) was 80 and the “Foliar treatment herbicidal activity, black nightshade” value (black nightshade [6]) was 100. For the same compound, the “Foliar treatment herbicidal activity, Indian jointvetch” value (indian jointvetch [7]) was 100, the “Foliar treatment herbicidal activity, velvet leaf” value (velvetleaf [8]) was 98 and the “Foliar treatment herbicidal activity, Cocklebur” value (cocklebur [9]) was 98. The “Foliar treatment herbicidal activity, Bindweed” value (bindweed [10]) was 100, the “Soil treatment herbicidal activity, Sorghum” value (sorghum [11]) was 0 and the “Soil treatment herbicidal activity, barnyard grass” value (barnyard grass [12]) was 0. The “Soil treatment herbicidal activity, quack grass” value (quack grass [13]) was 0, the “Soil treatment herbicidal activity, Crabgrass” value (crabgrass [14]) was 98 and the “Soil treatment herbicidal activity, Fall panicum” value (fall panicum [15]) was 0. The “Soil treatment herbicidal activity, black nightshade” value (black nightshade [16]) was 100, the “Soil treatment herbicidal activity, Indian jointvetch” value (indian jointvetch [17]) was 0 and the “Soil treatment herbicidal activity, velvet leaf” value (velvetleaf [18]) was 50. For the same compound, the “Soil treatment herbicidal activity, Bindweed” value (bindweed [19]) was 0, the “Foliar treatment phytotoxicity, Corn” value (corn; [21]) was 0 and the “Foliar treatment phytotoxicity, Corn” value (corn; [22]) was 0. The “Foliar treatment phytotoxicity, Corn” value (corn; [23]) was 1, the “Foliar treatment phytotoxicity, Corn” value (corn; [24]) was 0 and the “Foliar treatment phytotoxicity, Wheat” value (wheat; [25]) was 0. The “Foliar treatment phytotoxicity, Wheat” value (wheat; [26]) was 0, the “Foliar treatment phytotoxicity, Wheat” value (wheat; [27]) was 0 and the “Foliar treatment phytotoxicity, Wheat” value (wheat; [28]) was 0.

Compound `CSc1nc(COCc2nc(C(F)(F)F)ccc2C(=O)Nc2nnnn2C)nn1C` [Compound No. 2-131, N-(1-methyl-1H-tetrazol-5-yl)-2-(((1-methyl-5-(methylthio)-1H-1,2,4-triazol-3-yl)methoxy)methyl)-6-(trifluoromethyl)nicotinamide] has a plant injury at 50 g/ha (sorghum [1]) of 40%, a pest or weed control at 50 g/ha (barnyard grass [2]) of 98% and a pest or weed control at 50 g/ha (quack grass [3]) of 10%. For the same compound, the “Foliar treatment herbicidal activity, Crabgrass” value (crabgrass [4]) was 100, the pest or weed control at 50 g/ha (fall panicum [5]) was 70% and the “Foliar treatment herbicidal activity, black nightshade” value (black nightshade [6]) was 100. The pest or weed control at 50 g/ha (indian jointvetch [7]) was 70%, the “Foliar treatment herbicidal activity, velvet leaf” value (velvetleaf [8]) was 100 and the pest or weed control at 50 g/ha (cocklebur [9]) was 80%. The “Soil treatment herbicidal activity, Sorghum” value (sorghum [11]) was 0, the “Soil treatment herbicidal activity, barnyard grass” value (barnyard grass [12]) was 0 and the “Soil treatment herbicidal activity, quack grass” value (quack grass [13]) was 0. The “Soil treatment herbicidal activity, Crabgrass” value (crabgrass [14]) was 0, the pest or weed control at 50 g/ha (black nightshade [16]) was 98% and the “Soil treatment herbicidal activity, Indian jointvetch” value (indian jointvetch [17]) was 100. For the same compound, the pest or weed control at 50 g/ha (velvetleaf [18]; Abutilon theophrasti, read-out: Soil treatment herbicidal activity, velvet leaf) was 98% and the “Soil treatment herbicidal activity, Cocklebur” value (cocklebur [20]) was 0.

In the case of `Cn1nnc(CSCc2nc(C(F)(F)F)ccc2C(=S)Nc2nnnn2C)n1` [Compound No. 2-107, N-(1-methyl-1H-tetrazol-5-yl)-2-((((2-methyl-2H-tetrazol-5-yl)methyl)thio)methyl)-6-(trifluoromethyl)pyridin-3-carbothioamide], the plant injury at 50 g/ha (sorghum [1]) is reported as 70%, the pest or weed control at 50 g/ha (barnyard grass [2]) is reported as 70% and the “Foliar treatment herbicidal activity, quack grass” value (quack grass [3]) is reported as 0. For the same compound, the pest or weed control at 50 g/ha (crabgrass [4]) was 95%, the pest or weed control at 50 g/ha (fall panicum [5]) was 60% and the “Foliar treatment herbicidal activity, black nightshade” value (black nightshade [6]) was 100. It also gave a pest or weed control at 50 g/ha (indian jointvetch [7]) of 98%, a pest or weed control at 50 g/ha (velvetleaf [8]) of 70% and a pest or weed control at 50 g/ha (cocklebur [9]) of 98%. For the same compound, the pest or weed control at 50 g/ha (bindweed [10]) was 98%, the plant injury at 50 g/ha (sorghum [11]; Sorghum) was 20% and the “Soil treatment herbicidal activity, barnyard grass” value (barnyard grass [12]) was 0. For the same compound, the “Soil treatment herbicidal activity, quack grass” value (quack grass [13]) was 0, the “Soil treatment herbicidal activity, Crabgrass” value (crabgrass [14]) was 0 and the “Soil treatment herbicidal activity, Fall panicum” value (fall panicum [15]) was 0. For the same compound, the pest or weed control at 50 g/ha (black nightshade [16]) was 70%, the “Soil treatment herbicidal activity, Indian jointvetch” value (indian jointvetch [17]) was 0 and the “Soil treatment herbicidal activity, velvet leaf” value (velvetleaf [18]) was 100. For the same compound, the pest or weed control at 50 g/ha (bindweed [19]) was 40%, the “Foliar treatment phytotoxicity, Corn” value (corn; [21]) was 1 and the “Foliar treatment phytotoxicity, Corn” value (corn; [22]) was 0. The “Foliar treatment phytotoxicity, Corn” value (corn; [23]) was 0, the “Foliar treatment phytotoxicity, Corn” value (corn; [24]) was 0 and the “Foliar treatment phytotoxicity, Wheat” value (wheat; [25]) was 3. For the same compound, the “Foliar treatment phytotoxicity, Wheat” value (wheat; [26]) was 3, the “Foliar treatment phytotoxicity, Wheat” value (wheat; [27]) was 4 and the “Foliar treatment phytotoxicity, Wheat” value (wheat; [28]) was 3.

For `Cn1cnc(COCc2nc(C(F)(F)C(F)(F)F)ccc2C(=O)Nc2nnnn2C)n1` [Compound No. 2-83, 2-(((1-methyl-1H-1,2,4-triazol-3-yl)methoxy)methyl)-N-(1-methyl-1H-tetrazol-5-yl)-6-(perfluoroethyl)nicotinamide], the plant injury at 50 g/ha (sorghum [1]) was 20%, the pest or weed control at 50 g/ha (barnyard grass [2]) was 90% and the “Foliar treatment herbicidal activity, quack grass” value (quack grass [3]) was 0. The pest or weed control at 50 g/ha (crabgrass [4]) was 70%, the pest or weed control at 50 g/ha (fall panicum [5]) was 70% and the pest or weed control at 50 g/ha (black nightshade [6]; Solanum nigrum) was 98%. It also gave a pest or weed control at 50 g/ha (indian jointvetch [7]) of 70%, a pest or weed control at 50 g/ha (velvetleaf [8]) of 70% and a pest or weed control at 50 g/ha (cocklebur [9]) of 60%. The pest or weed control at 50 g/ha (bindweed [10]) was 40%, the “Soil treatment herbicidal activity, Sorghum” value (sorghum [11]) was 0 and the “Soil treatment herbicidal activity, barnyard grass” value (barnyard grass [12]) was 0. The “Soil treatment herbicidal activity, quack grass” value (quack grass [13]) was 0, the pest or weed control at 50 g/ha (crabgrass [14]; Digitaria sanguinalis) was 70% and the pest or weed control at 50 g/ha (fall panicum [15]; Panicum dichotomiflorum) was 60%. For the same compound, the “Soil treatment herbicidal activity, black nightshade” value (black nightshade [16]) was 100, the pest or weed control at 50 g/ha (indian jointvetch [17]) was 80% and the “Soil treatment herbicidal activity, velvet leaf” value (velvetleaf [18]) was 100. For the same compound, the pest or weed control at 50 g/ha (bindweed [19]) was 40%.
